Source: patent US12012411B2, “Viral replication inhibitors” (Katholieke Universiteit Leuven, priority 2011, dated 2024)
pEC50: −log10 of the molar value.

Assays:
DENV-2 NGC [1] = assay: Antiviral activity against DENV-2 NGC in Vero-B cells (viral RNA load by RT-qPCR); assay type: cell-based, Dengue virus; settings: Dengue virus, DENV2, Vero B, DENV-2 in Vero-B cells; inhibition of viral RNA replication by 50% (Table 3)
[2] = system: DENV-1 Djibouti strain D1/H/IMTSSA/98/606; assay: Antiviral activity against DENV-1 in Vero-B cells (viral RNA load by RT-qPCR); assay type: cell-based, Dengue virus; settings: Dengue virus, DENV1, Vero B
[3] = system: DENV-3 strain H87 prototype; assay: Antiviral activity against DENV-3 in Vero-B cells (viral RNA load by RT-qPCR); assay type: cell-based, Dengue virus; settings: Dengue virus, DENV3, Vero B
[4] = system: DENV-4 strain Dak HD 34 460; assay: Antiviral activity against DENV-4 in Vero-B cells (viral RNA load by RT-qPCR); assay type: cell-based, Dengue virus; settings: Dengue virus, DENV4, Vero B
YFV-17D = assay: microbe, parasite or virus in culture; assay type: cell-based; settings: Yellow fever virus, Vero B
in vitro = settings: African green monkey; for CC50 at 4 days: uninfected quiescent Vero-B cells
[5] = system: uninfected quiescent Vero-B cells; assay: Cytotoxic assay in uninfected quiescent Vero-B cells (MTS/PMS); settings: 4 days (Table 3)
DENV-2 NGC [6] = assay: Antiviral activity against DENV-2 NGC in A549 cells (viral RNA load by RT-qPCR); assay type: cell-based; settings: Dengue virus, DENV2; DENV-2 in A549 cells (Table 6)
[7] = Cytotoxicity in A549 cells (MTS/PMS); assay type: cell-based; settings: human; A549 cells (Table 6)
Protocol: A similar protocol was used to assess cytotoxicity in A549 cells with the difference that cells were seeded at 2×10^4 cells/well.

DENV-2 strain D2Y98P = assay: Dengue mortality model in AG129 mice; assay type: in vivo; settings: 60 mg/kg/day, sc, twice daily, 17 consecutive days; DENV-2 D2Y98P infected AG129 mice; p: 0.0017; FIG. 1

COc1ccc(NC(C(=O)c2c[nH]c3ccccc23)c2ccccc2)cc1OC (stereo not shown) [CPD-001]
pEC50 (DENV-2 NGC [1]): 7.10
pEC50 [2]: 5.80
pEC50 [3]: 4.53
pEC50 [4]: 5.35
pEC50 (YFV-17D): 5.04
CC50 (in vitro): 43000 nM
CC50 [5]: 29000 nM

COc1cc(NC(C(=O)c2c[nH]c3ccccc23)c2ccccc2)cc(OC)c1 (stereo not shown) [CPD-002]
pEC50 (DENV-2 NGC [1]): 8.00
pEC50 [2]: 6.27
pEC50 [3]: > 6.30
pEC50 [4]: 4.57
pEC50 (YFV-17D): 5.55
CC50 (in vitro): 25000 nM
CC50 [5]: 16000 nM

COc1cccc(NC(C(=O)c2c[nH]c3ccccc23)c2ccccc2)c1 (stereo not shown) [CPD-010]
pEC50 (DENV-2 NGC [1]): 7.15
pEC50 [2]: 5.89
pEC50 [3]: 5.45
pEC50 [4]: 5.27
pEC50 (YFV-17D): > 6.22
pEC50 (DENV-2 NGC [6]): 7.18
CC50 at 4 days [7]: 16000 nM
CC50 (in vitro): 12000 nM
CC50 [5]: 18000 nM

COc1cc(NC(C(=O)c2c(C)[nH]c3ccccc23)c2ccccc2)cc(OC)c1 (stereo not shown) [CPD-012]
pEC50 (DENV-2 NGC [1]): 7.30
pEC50 [2]: 5.35
pEC50 [3]: > 6.30
pEC50 (YFV-17D): > 6.30
CC50 (in vitro): 12000 nM
CC50 at 4 days (in vitro): 14000 nM

COc1cc(NC(C(=O)c2c[nH]c3cc(Cl)ccc23)c2ccccc2)cc(OC)c1 (stereo not shown) [CPD-013]
pEC50 (DENV-2 NGC [1]): 8.70
pEC50 [2]: 7.05
pEC50 [3]: > 6.30
pEC50 [4]: 5.74
pEC50 (YFV-17D): 6.28
CC50 (in vitro): 11000 nM
CC50 at 4 days (in vitro): 9000 nM

COc1cccc(NC(C(=O)c2c[nH]c3ccccc23)c2cccnc2)c1 (stereo not shown) [CPD-019]
pEC50 (DENV-2 NGC [1]): 6.85
pEC50 [2]: 6.17
pEC50 [3]: 5.66
pEC50 [4]: 5.08
pEC50 (YFV-17D): 5.21
CC50 (in vitro): 56000 nM
CC50 [5]: 71000 nM

COc1cc(NC(C(=O)c2c[nH]c3ccc(F)cc23)c2ccccc2)cc(OC)c1 (stereo not shown) [CPD-131]
pEC50 (DENV-2 NGC [1]): 8.00
pEC50 [2]: 6.60
pEC50 [3]: 6.17
pEC50 [4]: 5.32
pEC50 (DENV-2 NGC [6]): 8.10
CC50 at 4 days [7]: 11000 nM
CC50 [5]: 13000 nM

COc1cccc(NC(C(=O)c2csc3ccccc23)c2ccccc2)c1 (stereo not shown) [CPD-193]
pEC50 (DENV-2 NGC [1]): 6.14
pEC50 [2]: 4.63
pEC50 [3]: 4.72
pEC50 [4]: 5.26
pEC50 (YFV-17D): > 6.30
CC50 (in vitro): > 133000 nM
CC50 at 4 days (in vitro): > 133000 nM

COc1cc(NC(C(=O)c2c[nH]c3ccccc23)c2cccnc2)cc(OC)c1 (stereo not shown) [CPD-236]
pEC50 (DENV-2 NGC [1]): 7.70
pEC50 [2]: 6.77
pEC50 [3]: 6.51
pEC50 [4]: 5.61
pEC50 (DENV-2 NGC [6]): 7.72
CC50 at 4 days [7]: 65000 nM
CC50 [5]: 69000 nM

COc1cncc(NC(C(=O)c2c[nH]c3cc(F)ccc23)c2ccc(OC)nc2)c1 (stereo not shown) [CPD-242]
pEC50 (DENV-2 NGC [1]): 7.40
pEC50 [2]: 6.40
pEC50 [3]: 6.24
pEC50 [4]: 5.10
pEC50 (DENV-2 NGC [6]): 8.00
CC50 at 4 days [7]: 47000 nM
delay in virus-induced morbidity (day of euthanasia) (DENV-2 strain D2Y98P): highly significant delay
CC50 at 4 days (in vitro): 59000 nM

COc1cccc(NC(C(=O)c2c[nH]c3ccccc23)c2nc3ccccc3o2)c1 (stereo not shown) [CPD-328]
pEC50 (DENV-2 NGC [1]): 8.00
pEC50 [2]: 6.70
pEC50 [3]: 6.89
pEC50 [4]: 5.55
pEC50 (DENV-2 NGC [6]): 8.22
CC50 at 4 days [7]: 12000 nM
CC50 [5]: 13000 nM
